Laboratory results reported in patent US20140271822A1, “MODIFIED DOCETAXEL LIPOSOME FORMULATIONS” (Mallinckrodt LLC, priority 2013, published 2014).
“Also recorded” adds a separate entry of the source.

Assays:
[1] = in vivo; details: male, athymic nude, mouse, plasma, iv, 19 mg/kg
Description: (§1) The plasma pharmacokinetics and distribution were studied in male athymic nude mice each implanted subcutaneously with PC3 cells (human prostate cancer). Once tumors reached a volume of 100-300 mm^3, animals were randomized into 5 groups.
(§2) Three animals were sacrificed at 5 minutes and 1, 4, 24, 48, 72, 120 and 168 hours post injection. Blood samples were taken for pharmacokinetic analysis at each time. Pharmacokinetic parameters of TD-1 and docetaxel were calculated using the Phoenix WinNonLin software by non-compartment analysis modeling.

[2] = test system: human A549 NSCLC tumor xenografts; test: Antitumor activity, A549 NSCLC xenograft, single dose; type: in vivo, athymic nude mice
Description: (§3) The studies were of broadly similar design. Tumor cell lines were implanted subcutaneously into the flank of nude (immunodeficient) mice and allowed to grow to a fixed size. […] In each case, where possible, doses were selected as providing equivalent levels of toxicity/tolerance. […] Tumor volume was analyzed to determine tumor growth delay (TGD) and partial regression. Mice were removed from the study if they lost 20% of their initial bodyweight or became moribund or if their tumor volume exceeded 2500 mm^3 or the tumor ulcerated. If less than half of the initial cohort of mice remained, that group was no longer graphed or included in further tumor analysis. However, any remaining animals were followed until completion of the in-life observation period and included in a survival analysis.

[3] = test system: A549 human NSCLC tumor xenografts; test: Antitumor activity, A549 NSCLC xenograft, two doses 21 days apart; details: for Median Survival / Partial Tumor Regression (%) / TGD / TGD (%): two doses 21 days apart
Description: The studies were of broadly similar design. Tumor cell lines were implanted subcutaneously into the flank of nude (immunodeficient) mice and allowed to grow to a fixed size. […] In each case, where possible, doses were selected as providing equivalent levels of toxicity/tolerance. The highest doses of TD-1 were usually limited by the volume that could be administered. Tumor volume was analyzed to determine tumor growth delay (TGD) and partial regression. Mice were removed from the study if they lost 20% of their initial bodyweight or became moribund or if their tumor volume exceeded 2500 mm^3 or the tumor ulcerated. If less than half of the initial cohort of mice remained, that group was no longer graphed or included in further tumor analysis. However, any remaining animals were followed until completion of the in-life observation period and included in a survival analysis.

[4] = Tissue distribution in mice with PC3 xenografts; details: docetaxel in tissue
Description: as §1, §2
In addition to the plasma levels and pharmacokinetic calculations described above, tissue distribution was also evaluated. Tissues harvested from each animal described in Table 5 and frozen before analysis included: tumor, liver, spleen, and kidney.

[5] = test system: human A253 (Head & Neck) tumor xenografts; test: Antitumor activity, A253 head & neck xenograft; type: in vivo, athymic nude mice; details: for TGI (%): day 31 post treatment
Excerpt: The studies were of broadly similar design.

[6] = in vivo; details: female, athymic nude, mouse, iv
Description: (§4) The plasma pharmacokinetics and distribution were studied in female athymic nude mice each implanted subcutaneously with A549 cells (human non-small cell lung cancer). Once tumors reached a volume of 100-300 mm^3, animals were randomized into 4 groups.
(§5) Three animals were sacrificed at 1, 4, 24, 72 (3 days), 168 (7 days), 216 (9 days), 336 (14 days), 432 (18 days) and 504 hours (21 days) post injection. Blood samples were taken for pharmacokinetic analysis at each time point. Pharmacokinetic parameters of TD-1 and docetaxel were calculated using the Phoenix WinNonLin software by non-compartment analysis modeling.

[7] = test system: HT1080/PTK7 human fibrosarcoma tumor xenografts; test: Antitumor activity, HT1080/PTK7 fibrosarcoma xenograft; type: in vivo, athymic nude mice
Description: as §3

[8] = test system: A431 human epidermoid tumor xenografts; test: Antitumor activity, A431 epidermoid xenograft; type: in vivo, athymic nude mice
Description: as §3

[9] = Plasma pharmacokinetics in nude mice bearing PC3 xenografts; details: single iv; for plasma docetaxel concentrations falling below the levels of detection after: free drugs
Description: as §1, §2

[10] = Tissue distribution in mice with A549 xenografts; details: for Kidney AUC / Liver AUC / Spleen AUC / Tumor AUC: docetaxel in tissue
Description: as §4
Three animals were sacrificed at 1, 4, 24, 72 (3 days), 168 (7 days), 216 (9 days), 336 (14 days), 432 (18 days) and 504 hours (21 days) post injection. Blood samples were taken for pharmacokinetic analysis at each time point.

[11] = test system: human PC3 (prostate) tumor xenografts; test: Antitumor activity, PC3 prostate xenograft; type: in vivo, athymic nude mice; details: docetaxel 18 and 27 mg/kg
Description: as §3

[12] = mouse, in vivo
Description: as §4, §5

[13] = test system: MDA-MB-435/PTK7 (human breast) tumor xenografts; test: Antitumor activity, MDA-MB-435/PTK7 breast xenograft; type: in vivo, athymic nude mice
Description: as §3

[14] = 30 mg/kg (docetaxel equivalent) single iv
[15] = dose 19 mg/kg (docetaxel equivalent)
[16] = docetaxel in plasma, dose 19 mg/kg (docetaxel equivalent)
[17] = TD-1 in plasma, dose 11 mg/kg (docetaxel equivalent)
[18] = docetaxel in plasma, dose 11 mg/kg (docetaxel equivalent)

CC(=O)O[C@@]12CO[C@@H]1C[C@H](O)[C@@]1(C)C(=O)[C@H](O)C3=C(C)[C@@H](OC(=O)[C@H](O)[C@@H](NC(=O)OC(C)(C)C)c4ccccc4)C[C@@](O)([C@@H](OC(=O)c4ccccc4)[C@H]21)C3(C)C [Docetaxel, docetaxel]
AUC [1]: 13000 ng·h/mL
Cmax [1]: 13000 ng/mL
Vd [1]: 16.1 L/kg
clearance [1]: 25 mL/min/kg
half-life [1]: 7.4 h
Median Survival ([2]; 10 mg/kg single iv): 96 days
Partial Tumor Regression (%) ([2]; 10 mg/kg single iv): 0%
TGI (%) ([2]; 10 mg/kg single iv): 0%
Partial Tumor Regression (%) ([2]; 20 mg/kg single iv): 0%
TGI (%) ([2]; 20 mg/kg single iv): 4%
Partial Tumor Regression (%) [2, 14]: 10%
TGI (%) [2, 14]: 38%
effect on tumor volumes and survival ([2]; docetaxel 10, 20, 30 mg/kg): failed to reduce A549 tumor volumes significantly or extend survival
Median Survival ([3]; 18 mg/kg): 56 days
Partial Tumor Regression (%) ([3]; 18 mg/kg): 0%
TGD ([3]; 18 mg/kg): 19
TGD (%) ([3]; 18 mg/kg): 66%
Median Survival ([3]; 27 mg/kg): 100 days
Partial Tumor Regression (%) ([3]; 27 mg/kg): 10%
TGD ([3]; 27 mg/kg): 41
TGD (%) ([3]; 27 mg/kg): 141%
survival compared to saline ([3]; all dose levels, p<0.05): increased survival significantly compared to saline
tumor growth compared to saline ([3]; docetaxel 18 and 27 mg/kg, days 0 and 21, day 37): inhibited tumor growth; also recorded: significantly smaller tumors than saline
Kidney AUC [4, 15]: 73 µg·h/g
Liver AUC [4, 15]: 50 µg·h/g
Spleen AUC [4, 15]: 94 µg·h/g
Tumor AUC [4, 15]: 896 µg·h/g
Median Survival ([5]; 10 mg/kg single iv): 64 days
TGD ([5]; 10 mg/kg single iv): 0 days
TGD (%) ([5]; 10 mg/kg single iv): 0%
TGI (%) ([5]; 10 mg/kg single iv): 0%
Median Survival ([5]; 20 mg/kg single iv): 62 days
TGD ([5]; 20 mg/kg single iv): 0 days
TGD (%) ([5]; 20 mg/kg single iv): 0%
TGI (%) ([5]; 20 mg/kg single iv): 0%
Median Survival [5, 14]: 73 days
TGD [5, 14]: 5 days
TGD (%) [5, 14]: 9%
TGI (%) [5, 14]: 12%
effect on tumor volumes and survival ([5]; docetaxel 10, 20, 30 mg/kg): failed to reduce A253 tumor volumes significantly or extend survival
AUC(0-inf) ([6]; 30 mg/kg): 8800 ng·h/mL
Cmax ([6]; 30 mg/kg): 2700 ng/mL
Vd ([6]; 30 mg/kg): 16.1 L/kg
AUC(0-inf) ([6]; 50 mg/kg): 27000 ng·h/mL
Cmax ([6]; 50 mg/kg): 8600 ng/mL
Vd ([6]; 50 mg/kg): 37.2 L/kg
Median Survival ([7]; 9 mg/kg single iv): 11.5 days
Partial Tumor Regression (%) ([7]; 9 mg/kg single iv): 0%
TGI (%) ([7]; 9 mg/kg single iv): 52%
Median Survival ([7]; 18 mg/kg single iv): 23 days
Partial Tumor Regression (%) ([7]; 18 mg/kg single iv): 10%
TGD ([7]; 18 mg/kg single iv): 7
TGD (%) ([7]; 18 mg/kg single iv): 70%
TGI (%) ([7]; 18 mg/kg single iv): 31%
Median Survival ([7]; 27 mg/kg single iv): 30 days
Partial Tumor Regression (%) ([7]; 27 mg/kg single iv): 70%
TGD ([7]; 27 mg/kg single iv): 16
TGD (%) ([7]; 27 mg/kg single iv): 160%
TGI (%) ([7]; 27 mg/kg single iv): 89%
survival ([7]; docetaxel): did not significantly increase survival
tumor growth compared to saline ([7]; docetaxel 27 mg/kg, day 14): inhibited tumor growth; also recorded: significantly smaller tumors than saline
Median Survival ([8]; 20 mg/kg single iv): 17 days
Partial Tumor Regression (%) ([8]; 20 mg/kg single iv): 63%
TGD ([8]; 20 mg/kg single iv): 13
TGD (%) ([8]; 20 mg/kg single iv): 1408%
TGI (%) ([8]; 20 mg/kg single iv): 123%
Median Survival ([8]; 30 mg/kg single iv): 9 days
Partial Tumor Regression (%) ([8]; 30 mg/kg single iv): 50%
TGI (%) ([8]; 30 mg/kg single iv): 120%
tumor growth compared to saline ([8]; docetaxel 20 and 30 mg/kg, day 7): inhibited tumor growth; also recorded: significantly smaller tumors than saline
AUC/Dose [9, 16]: 0.7
Cmax/Dose [9, 16]: 0.7
plasma docetaxel concentrations falling below the levels of detection after [9]: 48 h
tumor retained measurable levels of docetaxel through ([10]; docetaxel 50 mg/kg): 216 h
tissue concentrations of docetaxel fell below the limits of quantitation after ([10]; docetaxel 50 mg/kg, most of the tissues except tumor): 24 h
Kidney AUC ([10]; dose 30 mg/kg): 28 µg·h/g
Liver AUC ([10]; dose 30 mg/kg): 10 µg·h/g
Spleen AUC ([10]; dose 30 mg/kg): 77 µg·h/g
Tumor AUC ([10]; dose 30 mg/kg): 276 µg·h/g
Kidney AUC ([10]; dose 50 mg/kg): 179 µg·h/g
Liver AUC ([10]; dose 50 mg/kg): 37 µg·h/g
Spleen AUC ([10]; dose 50 mg/kg): 162 µg·h/g
Tumor AUC ([10]; dose 50 mg/kg): 442 µg·h/g
docetaxel in liver, spleen and kidney fell below the levels of detection within ([10]; free docetaxel, after injection): ≤ 24 h
tumor docetaxel falling below the levels of quantitation (1.0 μg/g) after ([10]; intravenous injection of docetaxel): nine days
tumor growth [11]: inhibited tumor growth
survival compared to saline ([11]; p<0.05): increased survival significantly more than saline
plasma docetaxel detectable for [12]: only four hours
Median Survival ([13]; 9 mg/kg single iv): 15 days
Partial Tumor Regression (%) ([13]; 9 mg/kg single iv): 0%
TGD ([13]; 9 mg/kg single iv): 1
TGD (%) ([13]; 9 mg/kg single iv): 9%
Median Survival ([13]; 18 mg/kg single iv): 28 days
Partial Tumor Regression (%) ([13]; 18 mg/kg single iv): 13%
TGD ([13]; 18 mg/kg single iv): 10
TGD (%) ([13]; 18 mg/kg single iv): 91%
TGI (%) ([13]; 18 mg/kg single iv): 26%
Median Survival ([13]; 27 mg/kg single iv): 35 days
Partial Tumor Regression (%) ([13]; 27 mg/kg single iv): 38%
TGD ([13]; 27 mg/kg single iv): 18
TGD (%) ([13]; 27 mg/kg single iv): 164%
TGI (%) ([13]; 27 mg/kg single iv): 42%
tumor growth ([13]; docetaxel 18 and 27 mg/kg): inhibited tumor growth

CC(=O)O[C@@]12CO[C@@H]1C[C@H](O)[C@@]1(C)C(=O)[C@H](O)C3=C(C)[C@@H](OC(=O)[C@H](OC(=O)CCCN4CCN(C)CC4)[C@@H](NC(=O)OC(C)(C)C)c4ccccc4)C[C@@](O)([C@@H](OC(=O)c4ccccc4)[C@H]21)C3(C)C [TD-1, 2′O-4-(4-methylpiperazin-1-yl)-butanoyl-docetaxel]
Tumor AUC ([4]; dose 11 mg/kg (docetaxel equivalent)): 314 µg·h/g
AUC [9, 17]: 5700 ng·h/mL
AUC/Dose [9, 17]: 0.4
CL [9, 17]: 39.77 mL/min/kg
Cmax [9, 17]: 5000 ng/mL
Cmax/Dose [9, 17]: 0.4
Vz [9, 17]: 26.01 L/kg
t1/2 [9, 17]: 7.6 h
AUC [9, 18]: 4100 ng·h/mL
AUC/Dose [9, 18]: 0.4
CL [9, 18]: 43.18 mL/min/kg
Cmax [9, 18]: 1400 ng/mL
Cmax/Dose [9, 18]: 0.1
Vz [9, 18]: 40.905 L/kg
t1/2 [9, 18]: 11 h
plasma docetaxel concentrations falling below the levels of detection after [9]: 48 h
